In this assay the target is c-fms (Homo sapiens, UniProt P07333). Description: c-fms autophosphorylation, fluorescence polarization competition immunoassay. In kind it is biochemical. The following applies: 10 nM c-fms, 1 mM ATP; for inhibition at 0.1 µM: test concentration 0.1 μM, read-out: c-fms Autophosphorylation Percent Inhibition, % @ 0.1 μM; for inhibition at 1 µM: test concentration 1 μM, read-out: c-fms Autophosphorylation Percent Inhibition, % @ 1 μM. As for the experimental part: The assay buffer used was 100 mM 4-(2-hydroxyethyl)piperazine 1-ethanesulfonic acid (HEPES), pH 7.5, 1 mM 1,4-dithio-DL-threitol (DTT), 0.01% (v/v) Tween-20. Compounds were diluted in assay buffer containing 4% dimethylsulfoxide (DMSO) just prior to the assay. To each well, 5 μL of compound were added followed by the addition of 3 μL of a mix containing 33 nM c-fms and 16.7 mM MgCl2 (Sigma) in assay buffer. The kinase reaction was initiated by adding 2 μL of 5 mM ATP (Sigma) in assay buffer. The final concentrations in the assay were 10 nM c-fms, 1 mM ATP, 5 mM MgCl2, 2% DMSO. Control reactions were ran in each plate: in positive and negative control wells, assay buffer (made 4% in DMSO) was substituted for the compound; in addition, positive control wells received 1.2 μL of 50 mM ethylenediaminetetraaceticacid (EDTA).
c-fms, sequence (P07333 20-972): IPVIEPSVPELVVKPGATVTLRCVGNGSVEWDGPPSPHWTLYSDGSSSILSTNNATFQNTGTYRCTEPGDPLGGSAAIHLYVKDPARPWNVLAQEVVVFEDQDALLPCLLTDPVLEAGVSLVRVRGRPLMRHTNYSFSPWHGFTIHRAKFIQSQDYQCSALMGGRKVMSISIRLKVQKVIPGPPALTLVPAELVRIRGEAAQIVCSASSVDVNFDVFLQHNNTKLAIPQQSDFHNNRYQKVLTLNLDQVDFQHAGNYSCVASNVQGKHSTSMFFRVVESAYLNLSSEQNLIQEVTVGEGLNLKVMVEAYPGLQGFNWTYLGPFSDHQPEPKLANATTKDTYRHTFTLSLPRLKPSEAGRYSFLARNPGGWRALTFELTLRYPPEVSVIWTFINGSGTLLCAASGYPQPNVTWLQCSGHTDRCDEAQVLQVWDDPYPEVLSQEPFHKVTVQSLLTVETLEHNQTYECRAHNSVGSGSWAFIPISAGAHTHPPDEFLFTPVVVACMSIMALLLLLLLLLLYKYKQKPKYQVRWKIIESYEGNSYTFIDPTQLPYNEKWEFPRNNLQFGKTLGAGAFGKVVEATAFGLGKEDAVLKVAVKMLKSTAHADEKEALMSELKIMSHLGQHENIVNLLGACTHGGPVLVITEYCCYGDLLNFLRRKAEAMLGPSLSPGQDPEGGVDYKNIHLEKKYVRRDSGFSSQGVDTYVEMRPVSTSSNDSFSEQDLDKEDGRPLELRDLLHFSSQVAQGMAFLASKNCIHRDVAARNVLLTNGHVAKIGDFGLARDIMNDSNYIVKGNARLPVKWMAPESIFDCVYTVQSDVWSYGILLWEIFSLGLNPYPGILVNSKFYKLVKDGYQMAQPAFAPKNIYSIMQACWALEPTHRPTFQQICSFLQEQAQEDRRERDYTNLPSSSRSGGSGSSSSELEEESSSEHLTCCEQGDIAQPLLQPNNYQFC
The plates were incubated at room temperature for 45 min. At the end of the incubation, the reaction was quenched with 1.2 μL of 50 mM EDTA (EDTA was not added to the positive control wells at this point; see above). Following a 5-min incubation, each well received 10 μL of a 1:1:3 mixture of anti-phosphotyrosine antibody, 10X, PTK green tracer, 10X (vortexed), FP dilution buffer, respectively (all from PanVera, cat. # P2837). The plate was covered, incubated for 30 min at room temperature and the fluorescence polarization was read on the Analyst. The instrument settings were: 485 nm excitation filter; 530 nm emission filter; Z height: middle of well; G factor: 0.93.
The percent inhibition is shown in Table 1 at the indicated test concentration. The IC50 shown in Table 2 are averages of three independent measurements.

By inhibition is commonly meant the relative decrease from the control value, in per cent. As for `CN1CCN(CCCNc2ncc3c(=O)c(C(N)=O)cn(-c4ccc5c(c4)CCC5)c3n2)CC1` [Cpd 1, 8-Indan-5-yl-2-[4-(4-methyl-piperazin-1-yl)-propylamino]-5-oxo-5,8-dihydro-pyrido[2,3-d]pyrimidine-6-carboxylic acid amide], the inhibition at 0.1 µM is 24% and the inhibition at 1 µM stood at 69.1%.
With `NC(=O)c1cn(C2CCCCC2)c2nc(NCCN3CCOCC3)ncc2c1=O` [Cpd 39, 8-Cyclohexyl-2-(2-morpholin-4-yl-ethylamino)-5-oxo-5,8-dihydro-pyrido[2,3-d]pyrimidine-6-carboxylic acid amide], the inhibition at 0.1 µM stood at 21% and the inhibition at 1 µM was found to be 59%.
Taken in the same sequence, the figures for `CONC(=O)c1cn(-c2ccc3c(c2)CCC3)c2nc(NCc3cc(OC)cc(OC)c3)ncc2c1=O` [Cpd 27, 2-(3,5-Dimethoxy-benzylamino)-8-indan-5-yl-5-oxo-5,8-dihydro-pyrido[2,3-d]pyrimidine-6-carboxylic acid methoxy-amide] were 15% and 41%.
With `CONC(=O)c1cn(-c2ccc3c(c2)CCC3)c2nc(NCCc3ccc(OC)cc3)ncc2c1=O` [Cpd 24, 8-Indan-5-yl-2-[2-(4-methoxy-phenyl)-ethylamino]-5-oxo-5,8-dihydro-pyrido[2,3-d]pyrimidine-6-carboxylic acid methoxy-amide], the inhibition at 0.1 µM was 52% and the inhibition at 1 µM amounted to 59%.
As for `CONC(=O)c1cn(-c2ccc3c(c2)CCC3)c2nc(NCCCN(C)C)ncc2c1=O` [Cpd 20, 2-(3-Dimethylamino-propylamino)-8-indan-5-yl-5-oxo-5,8-dihydro-pyrido[2,3-d]pyrimidine-6-carboxylic acid methoxy-amide], the inhibition at 0.1 µM was 20% and the inhibition at 1 µM was found to be 52%.
For the compound `COCCNc1ncc2c(=O)c(C(N)=O)cn(C3CCCCC3)c2n1` [Cpd 35, 8-Cyclohexyl-2-(2-methoxy-ethylamino)-5-oxo-5,8-dihydro-pyrido[2,3-d]pyrimidine-6-carboxylic acid amide], the inhibition at 0.1 µM was 29% and the inhibition at 1 µM was 67%.
With `COc1ccc(CCNc2ncc3c(=O)c(C(N)=O)cn(C4CCCCC4)c3n2)cc1` [Cpd 37, 8-Cyclohexyl-2-[2-(4-methoxy-phenyl)-ethylamino]-5-oxo-5,8-dihydro-pyrido[2,3-d]pyrimidine-6-carboxylic acid amide], the inhibition at 0.1 µM amounted to 29% and the inhibition at 1 µM was determined as 41%.
Take `CONC(=O)c1cn(C2CCCCC2)c2nc(NCCN3CCOCC3)ncc2c1=O` [Cpd 51, 8-Cyclohexyl-2-(2-morpholin-4-yl-ethylamino)-5-oxo-5,8-dihydro-pyrido[2,3-d]pyrimidine-6-carboxylic acid methoxy-amide]: the inhibition at 0.1 µM amounted to 17% and the inhibition at 1 µM stood at 44%.
As to `COCCCNc1ncc2c(=O)c(C(N)=O)cn(-c3ccc4c(c3)CCC4)c2n1` [Cpd 7, 8-Indan-5-yl-2-(3-methoxy-propylamino)-5-oxo-5,8-dihydro-pyrido[2,3-d]pyrimidine-6-carboxylic acid amide], the inhibition at 0.1 µM stood at 17% and the inhibition at 1 µM is 43%.
Take `CNC(=O)c1cn(C2CCCCC2)c2nc(NCCCn3ccnc3)ncc2c1=O` [Cpd 53, 8-Cyclohexyl-2-(3-imidazol-1-yl-propylamino)-5-oxo-5,8-dihydro-pyrido[2,3-d]pyrimidine-6-carboxylic acid methylamide]: the inhibition at 0.1 µM was 10% and the inhibition at 1 µM was found to be 21%.
Turning to `CNC(=O)c1cn(C2CCCCC2)c2nc(NCc3cc(OC)cc(OC)c3)ncc2c1=O` [Cpd 61, 8-Cyclohexyl-2-(3,5-dimethoxy-benzylamino)-5-oxo-5,8-dihydro-pyrido[2,3-d]pyrimidine-6-carboxylic acid methylamide], the inhibition at 0.1 µM is 3% and the inhibition at 1 µM stood at 21%.
